{"source": "ChEMBL document CHEMBL1201862", "about": "“PubChem BioAssay data set” (2004)", "assay_in_all_cases": "NCI-60 cell line screen, 48 h", "key": {"[1]": {"tested_on": "CCRF-CEM"}, "[2]": {"tested_on": "IGROV-1"}, "[3]": {"tested_on": "OVCAR-5"}, "[4]": {"tested_on": "SK-MEL-2"}, "[5]": {"tested_on": "TK-10"}, "[6]": {"tested_on": "786-0"}, "[7]": {"tested_on": "SNB-19"}, "[8]": {"tested_on": "A549"}, "[9]": {"tested_on": "SF-539"}, "[10]": {"tested_on": "T47D"}, "[11]": {"tested_on": "NCI-H460"}, "[12]": {"tested_on": "SK-OV-3"}, "[13]": {"tested_on": "OVCAR-8"}, "[14]": {"tested_on": "MDA-MB-231"}, "[15]": {"tested_on": "U-251"}, "[16]": {"tested_on": "DU-145"}, "[17]": {"tested_on": "NCI/ADR-RES"}, "[18]": {"tested_on": "HL-60"}, "[19]": {"tested_on": "SR"}, "[20]": {"tested_on": "SF-295"}, "[21]": {"tested_on": "M14"}, "[22]": {"tested_on": "SN12C"}, "[23]": {"tested_on": "UACC-257"}, "[24]": {"tested_on": "SK-MEL-28"}, "[25]": {"tested_on": "Hs-578T"}, "[26]": {"tested_on": "HCC 2998"}, "[27]": {"tested_on": "A498"}, "[28]": {"tested_on": "MCF7"}, "[29]": {"tested_on": "SNB-75"}, "[30]": {"tested_on": "KM12"}, "[31]": {"tested_on": "NCI-H226"}, "[32]": {"tested_on": "HOP-62"}, "[33]": {"tested_on": "Malme-3M"}, "[34]": {"tested_on": "MDA-MB-435"}, "[35]": {"tested_on": "UACC-62"}, "[36]": {"tested_on": "CAKI-1"}, "[37]": {"tested_on": "SW-620"}, "[38]": {"tested_on": "COLO 205"}, "[39]": {"tested_on": "NCI-H522"}, "[40]": {"tested_on": "UO-31"}, "[41]": {"tested_on": "OVCAR-3"}, "[42]": {"tested_on": "K562"}, "[43]": {"tested_on": "HT-29"}, "[44]": {"tested_on": "HCT-15"}, "[45]": {"tested_on": "PC-3"}, "[46]": {"tested_on": "MDA-N"}, "[47]": {"tested_on": "NCI-H23"}, "[48]": {"tested_on": "SK-MEL-5"}, "[49]": {"tested_on": "BT-549"}, "[50]": {"tested_on": "HCT-116"}, "[51]": {"tested_on": "MOLT-4"}, "[52]": {"tested_on": "RPMI-8226"}, "[53]": {"tested_on": "SF-268"}, "[54]": {"tested_on": "LOX IMVI"}, "[55]": {"tested_on": "OVCAR-4"}, "[56]": {"tested_on": "RXF 393"}, "[57]": {"tested_on": "EKVX"}, "[58]": {"tested_on": "ACHN"}}, "note": "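The compound was tested at five concentrations on cells cultured in 96-well plates, with a 48-hour exposure period. The concentration for 50% growth inhibition is given as GI50.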 Calls of active or inactive are those of the source. Cut-off read from the data, not from the text of the source: active = GI50 up to about 1.1 µM and inactive = higher."}
{"smiles": "O=C(N/N=C/c1ccc(O)cc1)NNCCO", "values": [{"measurement": "GI50", "setting": "[1]", "result": "> 100 µM (inactive)"}, {"measurement": "GI50", "setting": "[2]", "result": "> 100 µM (inactive)"}, {"measurement": "GI50", "setting": "[3]", "result": "> 100 µM (inactive)"}, {"measurement": "GI50", "setting": "[4]", "result": "> 100 µM (inactive)"}, {"measurement": "GI50", "setting": "[5]", "result": "> 100 µM (inactive)"}, {"measurement": "GI50", "setting": "[6]", "result": "> 100 µM (inactive)"}, {"measurement": "GI50", "setting": "[7]", "result": "> 100 µM (inactive)"}, {"measurement": "GI50", "setting": "[8]", "result": "> 100 µM (inactive)"}, {"measurement": "GI50", "setting": "[9]", "result": "> 100 µM (inactive)"}, {"measurement": "GI50", "setting": "[10]", "result": "> 100 µM (inactive)"}, {"measurement": "GI50", "setting": "[11]", "result": "> 100 µM (inactive)"}, {"measurement": "GI50", "setting": "[12]", "result": "> 100 µM (inactive)"}, {"measurement": "GI50", "setting": "[13]", "result": "> 100 µM (inactive)"}, {"measurement": "GI50", "setting": "[14]", "result": "> 100 µM (inactive)"}, {"measurement": "GI50", "setting": "[15]", "result": "> 100 µM (inactive)"}, {"measurement": "GI50", "setting": "[16]", "result": "> 100 µM (inactive)"}, {"measurement": "GI50", "setting": "[17]", "result": "> 100 µM (inactive)"}, {"measurement": "GI50", "setting": "[18]", "result": "> 100 µM (inactive)"}, {"measurement": "GI50", "setting": "[19]", "result": "> 100 µM (inactive)"}, {"measurement": "GI50", "setting": "[20]", "result": "> 100 µM (inactive)"}, {"measurement": "GI50", "setting": "[21]", "result": "> 100 µM (inactive)"}, {"measurement": "GI50", "setting": "[22]", "result": "> 100 µM (inactive)"}, {"measurement": "GI50", "setting": "[23]", "result": "> 100 µM (inactive)"}, {"measurement": "GI50", "setting": "[24]", "result": "> 100 µM (inactive)"}, {"measurement": "GI50", "setting": "[25]", "result": "> 100 µM (inactive)"}, {"measurement": "GI50", "setting": "[26]", "result": "> 100 µM (inactive)"}, {"measurement": "GI50", "setting": "[27]", "result": "> 100 µM (inactive)"}, {"measurement": "GI50", "setting": "[28]", "result": "> 100 µM (inactive)"}, {"measurement": "GI50", "setting": "[29]", "result": "50.5 µM (inactive)"}, {"measurement": "GI50", "setting": "[30]", "result": "> 100 µM (inactive)"}, {"measurement": "GI50", "setting": "[31]", "result": "> 100 µM (inactive)"}, {"measurement": "GI50", "setting": "[32]", "result": "> 100 µM (inactive)"}, {"measurement": "GI50", "setting": "[33]", "result": "> 100 µM (inactive)"}, {"measurement": "GI50", "setting": "[34]", "result": "> 100 µM (inactive)"}, {"measurement": "GI50", "setting": "[35]", "result": "> 100 µM (inactive)"}, {"measurement": "GI50", "setting": "[36]", "result": "> 100 µM (inactive)"}, {"measurement": "GI50", "setting": "[37]", "result": "> 100 µM (inactive)"}, {"measurement": "GI50", "setting": "[38]", "result": "> 100 µM (inactive)"}, {"measurement": "GI50", "setting": "[39]", "result": "> 100 µM (inactive)"}, {"measurement": "GI50", "setting": "[40]", "result": "> 100 µM (inactive)"}, {"measurement": "GI50", "setting": "[41]", "result": "> 100 µM (inactive)"}, {"measurement": "GI50", "setting": "[42]", "result": "> 100 µM (inactive)"}, {"measurement": "GI50", "setting": "[43]", "result": "> 100 µM (inactive)"}, {"measurement": "GI50", "setting": "[44]", "result": "> 100", "unit": "µM"}, {"measurement": "GI50", "setting": "[45]", "result": "> 100 µM (inactive)"}, {"measurement": "GI50", "setting": "[46]", "result": "> 100 µM (inactive)"}, {"measurement": "GI50", "setting": "[47]", "result": "> 100 µM (inactive)"}, {"measurement": "GI50", "setting": "[48]", "result": "> 100 µM (inactive)"}, {"measurement": "GI50", "setting": "[49]", "result": "> 100 µM (inactive)"}, {"measurement": "GI50", "setting": "[50]", "result": "> 100 µM (inactive)"}, {"measurement": "GI50", "setting": "[51]", "result": "> 100 µM (inactive)"}]}
{"smiles": "CCOC(=O)O/C(=C\\c1ccc(OC)cc1)c1c(OC(=O)OCC)n(C(=O)OCC)c2ccccc12", "values": [{"measurement": "GI50", "setting": "[1]", "result": "21.8 µM (inactive)"}, {"measurement": "GI50", "setting": "[2]", "result": "35.7 µM (inactive)"}, {"measurement": "GI50", "setting": "[52]", "result": "1.83 µM (inactive)"}, {"measurement": "GI50", "setting": "[3]", "result": "76.9 µM (inactive)"}, {"measurement": "GI50", "setting": "[4]", "result": "35 µM (inactive)"}, {"measurement": "GI50", "setting": "[53]", "result": "47.1 µM (inactive)"}, {"measurement": "GI50", "setting": "[5]", "result": "31.3 µM (inactive)"}, {"measurement": "GI50", "setting": "[6]", "result": "39.5 µM (inactive)"}, {"measurement": "GI50", "setting": "[8]", "result": "34.4 µM (inactive)"}, {"measurement": "GI50", "setting": "[9]", "result": "34.8 µM (inactive)"}, {"measurement": "GI50", "setting": "[10]", "result": "57.7 µM (inactive)"}, {"measurement": "GI50", "setting": "[11]", "result": "15.1 µM (inactive)"}, {"measurement": "GI50", "setting": "[12]", "result": "41.5 µM (inactive)"}, {"measurement": "GI50", "setting": "[13]", "result": "59.2 µM (inactive)"}, {"measurement": "GI50", "setting": "[14]", "result": "18.5 µM (inactive)"}, {"measurement": "GI50", "setting": "[54]", "result": "42.3 µM (inactive)"}, {"measurement": "GI50", "setting": "[15]", "result": "24.7 µM (inactive)"}, {"measurement": "GI50", "setting": "[16]", "result": "42.2 µM (inactive)"}, {"measurement": "GI50", "setting": "[17]", "result": "43.9 µM (inactive)"}, {"measurement": "GI50", "setting": "[18]", "result": "> 100 µM (inactive)"}, {"measurement": "GI50", "setting": "[19]", "result": "15.3 µM (inactive)"}, {"measurement": "GI50", "setting": "[20]", "result": "28.4 µM (inactive)"}, {"measurement": "GI50", "setting": "[21]", "result": "23.6 µM (inactive)"}, {"measurement": "GI50", "setting": "[55]", "result": "32.4 µM (inactive)"}, {"measurement": "GI50", "setting": "[22]", "result": "31.6 µM (inactive)"}, {"measurement": "GI50", "setting": "[23]", "result": "34.5 µM (inactive)"}, {"measurement": "GI50", "setting": "[56]", "result": "19.8 µM (inactive)"}, {"measurement": "GI50", "setting": "[24]", "result": "19.6 µM (inactive)"}, {"measurement": "GI50", "setting": "[25]", "result": "22.3 µM (inactive)"}, {"measurement": "GI50", "setting": "[27]", "result": "14.2 µM (inactive)"}, {"measurement": "GI50", "setting": "[28]", "result": "25.1 µM (inactive)"}, {"measurement": "GI50", "setting": "[29]", "result": "25.1 µM (inactive)"}, {"measurement": "GI50", "setting": "[30]", "result": "7.83 µM (inactive)"}, {"measurement": "GI50", "setting": "[57]", "result": "88.9 µM (inactive)"}, {"measurement": "GI50", "setting": "[31]", "result": "32.9 µM (inactive)"}, {"measurement": "GI50", "setting": "[32]", "result": "19.9 µM (inactive)"}, {"measurement": "GI50", "setting": "[33]", "result": "58.6 µM (inactive)"}, {"measurement": "GI50", "setting": "[34]", "result": "24.9 µM (inactive)"}, {"measurement": "GI50", "setting": "[35]", "result": "42.7 µM (inactive)"}, {"measurement": "GI50", "setting": "[36]", "result": "57.9 µM (inactive)"}, {"measurement": "GI50", "setting": "[37]", "result": "24.3 µM (inactive)"}, {"measurement": "GI50", "setting": "[38]", "result": "> 100 µM (inactive)"}, {"measurement": "GI50", "setting": "[40]", "result": "29.1 µM (inactive)"}, {"measurement": "GI50", "setting": "[41]", "result": "59.4 µM (inactive)"}, {"measurement": "GI50", "setting": "[42]", "result": "2.77 µM (inactive)"}, {"measurement": "GI50", "setting": "[43]", "result": "47.3 µM (inactive)"}, {"measurement": "GI50", "setting": "[44]", "result": 7.05, "unit": "µM"}, {"measurement": "GI50", "setting": "[45]", "result": "29.2 µM (inactive)"}, {"measurement": "GI50", "setting": "[46]", "result": "19.3 µM (inactive)"}, {"measurement": "GI50", "setting": "[47]", "result": "27.9 µM (inactive)"}, {"measurement": "GI50", "setting": "[58]", "result": "29.1 µM (inactive)"}, {"measurement": "GI50", "setting": "[48]", "result": "39 µM (inactive)"}, {"measurement": "GI50", "setting": "[49]", "result": "39.5 µM (inactive)"}, {"measurement": "GI50", "setting": "[50]", "result": "33.9 µM (inactive)"}]}
